Data: EP2127643A1, “Oral pellet composition with time-delayed release” (Bayer Schering Pharma Aktiengesellschaft, priority 2008, dated 2009)
Where two headings read alike, the source gives them in different places.

How the values were obtained:
CYP-2C9 = CYP-2C9 (Homo sapiens, UniProt P11712); assay: CYP test: inhibition of cytochrome P450 isoenzymes by excipients; format: biochemical
CYP-2C19 = CYP-2C19 (Homo sapiens, UniProt P33261); assay: as above; format: biochemical
CYP-3A4 = CYP-3A4 (Homo sapiens, UniProt P08684); assay: as above; format: biochemical
Chain of CYP-3A4 (P08684 whole entry): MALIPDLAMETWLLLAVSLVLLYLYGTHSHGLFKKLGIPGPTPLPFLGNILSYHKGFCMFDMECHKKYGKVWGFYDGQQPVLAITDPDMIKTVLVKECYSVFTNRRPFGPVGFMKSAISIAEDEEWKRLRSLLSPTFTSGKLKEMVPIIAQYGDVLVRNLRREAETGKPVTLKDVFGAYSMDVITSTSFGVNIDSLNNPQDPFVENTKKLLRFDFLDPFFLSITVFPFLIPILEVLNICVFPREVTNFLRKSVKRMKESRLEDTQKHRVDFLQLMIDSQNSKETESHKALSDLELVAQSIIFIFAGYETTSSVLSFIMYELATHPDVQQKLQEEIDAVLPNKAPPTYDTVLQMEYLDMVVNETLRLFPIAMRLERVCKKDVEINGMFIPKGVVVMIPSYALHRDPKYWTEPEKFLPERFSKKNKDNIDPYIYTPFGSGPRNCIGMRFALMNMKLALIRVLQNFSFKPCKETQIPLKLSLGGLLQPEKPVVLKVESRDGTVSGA

[1] = human, cited from earlier work
[2] = rats; paclitaxel oral 30 min after oral morin; cited from earlier work
[3] = human; oral paclitaxel with simultaneous cyclosporin (Pgp inhibitor); cited from earlier work
[4] = concentration of excipient at which 50 % of the isoenzyme is inhibited

Chain of CYP-2C19 (P33261 whole entry): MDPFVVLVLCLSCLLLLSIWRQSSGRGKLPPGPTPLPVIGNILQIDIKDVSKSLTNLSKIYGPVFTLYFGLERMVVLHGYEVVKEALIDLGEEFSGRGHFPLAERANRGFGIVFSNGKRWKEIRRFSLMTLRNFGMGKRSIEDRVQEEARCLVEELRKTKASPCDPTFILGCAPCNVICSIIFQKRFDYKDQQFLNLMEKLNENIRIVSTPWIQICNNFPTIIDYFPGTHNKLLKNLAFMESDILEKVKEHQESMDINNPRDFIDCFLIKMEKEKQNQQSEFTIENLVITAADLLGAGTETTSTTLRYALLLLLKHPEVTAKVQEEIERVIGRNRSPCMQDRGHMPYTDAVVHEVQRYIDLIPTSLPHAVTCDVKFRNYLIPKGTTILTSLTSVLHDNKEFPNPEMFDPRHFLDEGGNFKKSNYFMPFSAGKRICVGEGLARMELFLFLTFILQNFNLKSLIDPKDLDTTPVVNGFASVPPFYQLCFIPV
Chain of CYP-2C9 (P11712 whole entry): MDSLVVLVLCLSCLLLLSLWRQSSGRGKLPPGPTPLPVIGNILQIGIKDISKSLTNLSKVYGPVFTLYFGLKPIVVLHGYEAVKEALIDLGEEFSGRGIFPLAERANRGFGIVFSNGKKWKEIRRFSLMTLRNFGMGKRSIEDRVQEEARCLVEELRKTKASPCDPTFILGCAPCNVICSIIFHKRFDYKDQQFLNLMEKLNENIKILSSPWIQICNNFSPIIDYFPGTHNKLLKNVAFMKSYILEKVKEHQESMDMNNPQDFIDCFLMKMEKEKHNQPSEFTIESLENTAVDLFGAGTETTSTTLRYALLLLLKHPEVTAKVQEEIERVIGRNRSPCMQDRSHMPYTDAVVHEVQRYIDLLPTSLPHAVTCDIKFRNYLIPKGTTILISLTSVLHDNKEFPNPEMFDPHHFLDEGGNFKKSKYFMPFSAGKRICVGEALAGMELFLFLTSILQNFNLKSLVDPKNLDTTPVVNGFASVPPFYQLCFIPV

With Glycerolmonocaprylat [Imwitor®308] the “IC50, µg/ml CYP-2C9” value (CYP-2C9; [4]) was 5,0 µg/ml, the “IC50, µg/ml CYP-2C19” value (CYP-2C19; [4]) was 6,9 µg/ml and the “IC50, µg/ml CYP-3A4” value (CYP-3A4; [4]) was 29 µg/mL.

In the case of `CCOCCOCCO` [Transcutol®P, Ethoxydiglycol], the IC50 (CYP-2C9; concentration of excipient at which 50 % of the isoenzyme is inhibited, read-out: IC50, µg/ml CYP-2C9 (converted)) is reported as 11.2 mM, the IC50 (CYP-2C19; concentration of excipient at which 50 % of the isoenzyme is inhibited, read-out: IC50, µg/ml CYP-2C19 (converted)) is reported as 10.4 mM and the IC50 (CYP-3A4; concentration of excipient at which 50 % of the isoenzyme is inhibited, read-out: IC50, µg/ml CYP-3A4 (converted)) is reported as 5.63 mM.

Compound `CCCCCCCC/C=C\CCCCCCCC(=O)OCC` [Ethyloleat] has an IC50 (CYP-2C9) of 0.628 mM, an IC50 (CYP-2C19) of 1.05 mM and an IC50 (CYP-3A4) of 0.377 mM.

In the case of `C#C[C@]1(O)CC[C@H]2[C@@H]3CCc4cc(O)ccc4[C@H]3CC[C@@]21C` [Ethinylestradiol], the “Anteil des beobachteten First-Pass-Effekts durch direkte Konjugation (vor allem Sulfatierung in der Darmwand)” value ([1]; gut wall) is listed as 65% and the “humane absolute Bioverfügbarkeit” value ([1]; oral) is listed as about 45%.

For `CC(=O)O[C@H]1C(=O)[C@@]2(C)[C@H]([C@H](OC(=O)c3ccccc3)[C@]3(O)C[C@H](OC(=O)[C@H](O)[C@@H](NC(=O)c4ccccc4)c4ccccc4)C(C)=C1C3(C)C)[C@]1(OC(C)=O)CO[C@@H]1C[C@@H]2O` [Paclitaxel], the “Erhöhung der AUC” value [2] is listed as at most 70% and the “Bioverfügbarkeit erhöht um Faktor” value [3] is listed as 9.
